This assay deals with Prostate LnCAP (positive PSA). The experiment in a line: activity of PSA cleavable analogs, 48 hour exposure, PSA positive cell line. It counts as cell-based. The note with it: N = 3, mean ± SD.

Here are results for 1 compound from patent publication US11241398B2, “Affinity medicant conjugate” (Califia Pharma Inc., priority 2014, dated 2022).

For orientation: IC50 means the concentration that gives 50% inhibition. Higher therefore signals weaker potency.

The structures appear in SMILES notation.

As to `CC1=C2C(=C[C@@](C)(CO[Si](C)(C)C(C)(C)C)[C@@H]2OC(=O)[C@@H]2CCCN2C(=O)[C@H](CO)NC(=O)[C@@H](N)CO)C(=O)[C@](C)(O)C12CC2` [Analog 214], the IC50 was 190 ± 30 nM.
